Several values for one entry are separate records, joined by “and”; a condition that tells them apart may be missing. Equal entries are not always repeated. Structures can show the parent of a compound that is named as a salt. Where two headings read alike, the source gives them in different places.
What was measured:
AChE [1] = molecular target: T1, AChE (Homo sapiens, UniProt P22303); assay: biochemical; settings: for Selectivity index (SI): SI = IC50 (AChE)/IC50 (BChE); for IC50: recombinant human AChE, Ellman's method, triplicate
T1 sequence (P22303 32-614): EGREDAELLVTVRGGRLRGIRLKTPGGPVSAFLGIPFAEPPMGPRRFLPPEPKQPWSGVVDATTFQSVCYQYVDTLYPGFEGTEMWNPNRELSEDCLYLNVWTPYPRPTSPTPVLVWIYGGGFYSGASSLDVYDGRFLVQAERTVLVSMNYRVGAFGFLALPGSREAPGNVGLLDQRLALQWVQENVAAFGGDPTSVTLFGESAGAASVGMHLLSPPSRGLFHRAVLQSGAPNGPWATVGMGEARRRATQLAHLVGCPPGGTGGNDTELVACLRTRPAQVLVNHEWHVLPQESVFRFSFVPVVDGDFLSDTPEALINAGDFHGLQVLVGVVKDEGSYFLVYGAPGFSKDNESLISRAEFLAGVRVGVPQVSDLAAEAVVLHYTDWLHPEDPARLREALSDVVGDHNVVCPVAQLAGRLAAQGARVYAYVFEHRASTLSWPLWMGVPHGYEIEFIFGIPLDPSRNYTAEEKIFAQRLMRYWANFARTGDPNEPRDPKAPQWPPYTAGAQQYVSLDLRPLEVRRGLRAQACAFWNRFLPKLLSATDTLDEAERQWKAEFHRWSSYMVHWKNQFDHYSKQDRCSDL

BChE [2] = molecular target: T2, BChE (Homo sapiens, UniProt P06276); assay: biochemical; settings: Ellman's method, triplicate
T2 construct: purchased Cloud-Clone Corp., through BIOCOM Africa (Pty) Ltd RPC348Hu0 2_100
T2 sequence (P06276 29-602): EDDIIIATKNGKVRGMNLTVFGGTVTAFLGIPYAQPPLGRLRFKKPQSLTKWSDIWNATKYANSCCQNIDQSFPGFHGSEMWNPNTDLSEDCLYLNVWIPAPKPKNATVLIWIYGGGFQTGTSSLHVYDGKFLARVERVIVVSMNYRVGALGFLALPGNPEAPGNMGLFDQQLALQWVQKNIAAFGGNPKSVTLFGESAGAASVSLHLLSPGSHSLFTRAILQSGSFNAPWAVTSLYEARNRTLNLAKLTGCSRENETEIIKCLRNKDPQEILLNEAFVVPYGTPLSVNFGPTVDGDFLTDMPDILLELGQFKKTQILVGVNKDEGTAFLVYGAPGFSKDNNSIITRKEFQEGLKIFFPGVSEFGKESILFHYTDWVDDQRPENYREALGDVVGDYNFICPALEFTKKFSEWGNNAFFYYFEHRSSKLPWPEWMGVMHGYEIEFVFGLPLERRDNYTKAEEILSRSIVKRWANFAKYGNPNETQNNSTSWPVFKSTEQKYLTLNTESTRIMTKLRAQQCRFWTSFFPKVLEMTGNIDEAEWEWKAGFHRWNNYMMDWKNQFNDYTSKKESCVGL
Description: Their anti-AChE and BChE activities were determined by spectrophotometric Ellman’s method [42]. […] The mixtures were incubated for 15 min at RT. The reaction was initiated by adding 10 µL of a mixture solution of 5 mM 5,50-dithio-bis-nitrobenzoic acid (DTNB) in 50 mM tris buffer (pH 7.7) and 10 µL acetylthiocholine (ASCh) (5 mM) in 50 mM tris buffer, pH 7.7. The hydrolysis of ASCh was determined by monitoring the formation of the yellow 5-thio-2-nitrobenzoate anion resulting from reaction of DTNB with thiocholines (SCh).
The IC50 values were determined graphically from inhibition curves (inhibitor concentration and absorbance) using the graph pad prism.

COX-2 = molecular target: T3, COX-2 (Homo sapiens, UniProt P35354); assay: biochemical; settings: duplicate runs
T3 construct: purchased Bio Vision K547
T3 sequence (P35354 18-604): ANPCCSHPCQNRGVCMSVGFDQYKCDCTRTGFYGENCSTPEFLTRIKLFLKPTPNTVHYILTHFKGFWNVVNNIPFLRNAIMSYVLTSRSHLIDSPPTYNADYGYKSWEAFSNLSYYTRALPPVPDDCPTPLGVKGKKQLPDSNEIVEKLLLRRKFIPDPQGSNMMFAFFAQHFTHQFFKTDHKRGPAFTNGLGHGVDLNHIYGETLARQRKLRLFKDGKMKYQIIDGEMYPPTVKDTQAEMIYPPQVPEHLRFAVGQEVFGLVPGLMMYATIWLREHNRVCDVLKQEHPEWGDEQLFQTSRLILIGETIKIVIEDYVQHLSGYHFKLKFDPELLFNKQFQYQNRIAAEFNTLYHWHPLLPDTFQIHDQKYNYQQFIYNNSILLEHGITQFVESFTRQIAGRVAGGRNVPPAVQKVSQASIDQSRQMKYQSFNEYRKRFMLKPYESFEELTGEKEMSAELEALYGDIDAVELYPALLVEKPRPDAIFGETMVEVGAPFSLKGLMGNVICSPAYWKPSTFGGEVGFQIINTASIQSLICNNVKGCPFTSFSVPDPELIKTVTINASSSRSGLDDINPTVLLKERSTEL
Description: The reagents for the COX-2 assay were prepared according to the standard protocol enclosed in the Cyclooxygenase inhibitor screening kit (Item No. K547; Bio Vision, Milpitas Blvd, Milpitas, CA USA). […] The assay mixtures in a 96-well plate were distributed as follows: two wells taken as enzyme control (10µL assay buffer) and two wells as inhibitor control (2 µL of celecoxib and 8 µL of COX assay buffer). Ten microliters of the test compounds concentrations and those of celecoxib were added to the remaining wells with the aid of a multi-channel pipette. Then, 80 µL of the reaction mix (a mixture of 76 µL COX assay buffer, 1 µL of COX probe, 2 µL of diluted COX cofactor and 1 µL of COX-2 enzyme) were added to the reaction mixture. The assay mixtures in the 96-well plate were incubated for 5 min. The reactions were initiated by the addition of 10 µL of diluted arachidonic acid and sodium hydroxide solution (10 µL of arachidonic acid and 90 µL of sodium hydroxide) to each well. The absorbance was measured using a Varioskan flash microplate spectrophotometer, and the IC50 was calculated with the aid of a graph pad prism

[3] = molecular target: T4, soybean lipoxygenases-15 (LOX-15) (Glycine max, UniProt P08170); assay: Soybean LOX-15 inhibitory assay; format: biochemical
T4 construct: purchased Cayman Chemicals 760700
T4 sequence (P08170 1-839): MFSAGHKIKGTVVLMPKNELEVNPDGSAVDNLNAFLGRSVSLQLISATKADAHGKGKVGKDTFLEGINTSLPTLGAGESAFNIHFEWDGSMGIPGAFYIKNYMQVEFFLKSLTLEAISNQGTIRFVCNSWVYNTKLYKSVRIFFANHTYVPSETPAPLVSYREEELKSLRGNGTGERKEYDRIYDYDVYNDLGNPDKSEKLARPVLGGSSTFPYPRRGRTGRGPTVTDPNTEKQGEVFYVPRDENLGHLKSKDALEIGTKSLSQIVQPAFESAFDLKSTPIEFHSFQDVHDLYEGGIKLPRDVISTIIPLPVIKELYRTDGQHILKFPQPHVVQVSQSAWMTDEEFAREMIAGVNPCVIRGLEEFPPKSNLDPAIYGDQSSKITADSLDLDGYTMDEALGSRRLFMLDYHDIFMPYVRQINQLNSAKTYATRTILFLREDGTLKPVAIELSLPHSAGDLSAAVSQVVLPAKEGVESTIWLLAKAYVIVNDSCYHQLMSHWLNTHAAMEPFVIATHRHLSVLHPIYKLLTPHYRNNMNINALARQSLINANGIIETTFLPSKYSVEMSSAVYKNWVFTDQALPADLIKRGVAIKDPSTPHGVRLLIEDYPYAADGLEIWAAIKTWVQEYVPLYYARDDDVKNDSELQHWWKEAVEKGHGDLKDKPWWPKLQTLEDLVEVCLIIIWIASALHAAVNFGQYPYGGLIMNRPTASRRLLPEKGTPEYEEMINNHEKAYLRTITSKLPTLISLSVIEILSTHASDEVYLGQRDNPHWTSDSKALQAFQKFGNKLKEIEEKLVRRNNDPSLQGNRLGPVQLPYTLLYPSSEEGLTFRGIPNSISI
Description: Stock solutions of the test samples prepared in DMSO were further diluted with 50 mM Tris buffer of pH 7.7 to obtain concentrations of 0.01, 0.1, 1, 10, and 100 µM. The cells of a 96-well plate where arranged as follows: two wells taken as blanks (100 µL 50mM Tris buffer pH, 7.7), two wells taken as enzyme controls (90 µL of 15-LO Standard and 10 µL of DMSO), and two as 100% initial activity wells (90 µL lipoxygenase enzyme solution and 10 µL tris buffer). Then, 90 µL of lipoxygenase enzyme solution and 10 µL of each test compound (and reference standards) from the above concentrations were added to the other wells of a 96-well plate, and the plate was incubated for 5 min at room temperature. The reaction was initiated by addition of 10 µL of the arachidonic acid to each well containing the assay mixtures. The 96-well plate was shaken for 5 min on a shaker, and 100 µL of the chromogen (solution of equal volume developing reagent 1 and 2) was added to each well to initiate the reaction. The plate was again shaken for 5 min and the absorbance read at 490 nm in a Varioskan flash microplate spectrophotometer reader. The inhibitory concentration was expressed as a percentage using the formula below. Inhibitory concentration = AInitial activity −(ASample − ABlank sample)/AInitial activity×100 where ASample is the absorbance of the reaction mixture of the test sample, ABlank sample is the absorbance of the reaction mixture containing all reagents except enzyme, and AInitial activity is the absorbance of 100% initial activity.

human LOX-5 = molecular target: T5, human LOX-5 (Homo sapiens, UniProt P09917); assay: Human LOX-5 inhibitory assay; format: biochemical
T5 construct: purchased BioVision K980
T5 sequence (P09917 1-674): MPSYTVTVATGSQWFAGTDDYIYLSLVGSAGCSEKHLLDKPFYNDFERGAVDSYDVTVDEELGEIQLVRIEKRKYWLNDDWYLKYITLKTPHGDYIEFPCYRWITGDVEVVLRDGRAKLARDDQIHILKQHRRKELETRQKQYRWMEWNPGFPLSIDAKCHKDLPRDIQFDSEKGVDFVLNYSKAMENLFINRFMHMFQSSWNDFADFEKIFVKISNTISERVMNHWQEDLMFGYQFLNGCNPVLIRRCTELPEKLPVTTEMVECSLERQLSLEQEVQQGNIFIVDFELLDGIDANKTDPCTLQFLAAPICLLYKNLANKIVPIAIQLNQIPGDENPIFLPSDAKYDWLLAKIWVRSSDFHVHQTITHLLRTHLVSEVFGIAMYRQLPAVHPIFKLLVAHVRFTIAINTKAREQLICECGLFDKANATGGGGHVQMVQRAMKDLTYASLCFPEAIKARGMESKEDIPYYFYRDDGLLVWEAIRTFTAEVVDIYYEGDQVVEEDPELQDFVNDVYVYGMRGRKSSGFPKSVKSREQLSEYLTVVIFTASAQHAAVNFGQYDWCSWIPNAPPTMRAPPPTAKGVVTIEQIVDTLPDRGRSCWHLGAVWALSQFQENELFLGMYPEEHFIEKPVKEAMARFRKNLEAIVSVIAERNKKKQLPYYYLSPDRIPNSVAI
Description: The reagents were prepared according to the Lipoxygenase inhibitor screening kit (Item No. K980; BioVision, Milpitas Blvd, Milpitas, CA, USA) standard protocol. Stock solutions of the test compounds were prepared in DMSO, and further diluted with 50 mM Tris HCl buffer (pH 7.7) to obtain final concentrations of 0.01, 0.1, 1, 5, and 10 µM. […] The wells of a 96-well plate were arranged as follows: two wells were taken as blanks (40 µL of assay buffer) and two as enzyme controls (2 µL of LOX-5 Standard and 38 µL of tris buffer). Two microliters (2 µL) of the test compounds (various concentration of test compounds and reference standards, respectively) followed by 38 µL of LOX assay buffer were added to the other wells of the 96-well plate in duplicate. Then, 40 µL of the reaction mixture (prepared by mixing thoroughly 36 µL of LOX assay buffer, 2 µL of LOX probe and 2 µL of LOX-5 enzyme) was added to each well containing the test mixtures, and the wells were incubated for 10 min at RT. The DMSO concentration in each reaction well was 1% to prevent enzyme structural deformation and, therefore, reduced activity. […] The percentage inhibition (%) was calculated using the equation below.
% Inhibition = Control − Test/Control×100

[4] = DPPH radical scavenging assay; settings: 45 min in the dark, triplicate
Description: The DPPH radical scavenging activity of compounds 2a–i and 3a–i was evaluated following the literature method by Zhu et al.. The compounds were evaluated against ascorbic acid (Sigma Aldrich, Saint Louis, Missouri, USA) as a positive control. Various concentrations of the test compounds and control (0 µM to 40 µM) in DMSO were mixed with a solution of DPPH (0.20 mM) in methanol. The mixtures were incubated in the dark for 45 min and then the absorbances were recorded at 512 nm using Varioskan flash microplate spectrophotometer reader. All tests and analyses were run in triplicate and averaged. The inhibition was calculated in terms of percentage using the formula below: DPPH radical scavenged (%)=AbC − AbS/AbC×100 where AbC is absorbance of control and AbS the absorbance of the test sample.

[5] = system: breast cancer MCF-7 cell line; assay: MTT antigrowth assay, MCF-7; format: cell-based; settings: preliminary results, read-out: IC50 antigrowth effect, MCF-7
Description: (§1) Briefly, the Hek293-T cells and MCF-7 cancer cells were seeded in a 96-well plate at a density of 20 × 10^3 cells per well, and then incubated at 37 °C in 5% CO2 to allow cell attachment. The medium was removed and replaced with fresh medium containing various concentrations of the test sample and doxorubicin hydrochloride (10, 25, 50, 100, and 200 μM) and incubated for 24 h. After treatment for 24 h, 10 μL MTT (5 mg/mL) was added to each well and the plate was further incubated for 4 h. The supernatant was removed, and 100 μL of DMSO was added to each well to dissolve the resulting formazan crystals. The absorbance was read at 570 nm using the Varioskan flash microplate spectrophotometer reader and the cell viability. The percentages of cell viability were used to determine the IC50 values.

BACE-1 [6] = molecular target: T6, BACE-1 (Homo sapiens, UniProt P56817); assay: β-Secretase FRET inhibition assay; format: biochemical; settings: pH 4.5, 60 min at 25 °C, triplicate
T6 construct: purchased Pan Vera; host or cells: baculovirus expression
T6 sequence (P56817 46-501): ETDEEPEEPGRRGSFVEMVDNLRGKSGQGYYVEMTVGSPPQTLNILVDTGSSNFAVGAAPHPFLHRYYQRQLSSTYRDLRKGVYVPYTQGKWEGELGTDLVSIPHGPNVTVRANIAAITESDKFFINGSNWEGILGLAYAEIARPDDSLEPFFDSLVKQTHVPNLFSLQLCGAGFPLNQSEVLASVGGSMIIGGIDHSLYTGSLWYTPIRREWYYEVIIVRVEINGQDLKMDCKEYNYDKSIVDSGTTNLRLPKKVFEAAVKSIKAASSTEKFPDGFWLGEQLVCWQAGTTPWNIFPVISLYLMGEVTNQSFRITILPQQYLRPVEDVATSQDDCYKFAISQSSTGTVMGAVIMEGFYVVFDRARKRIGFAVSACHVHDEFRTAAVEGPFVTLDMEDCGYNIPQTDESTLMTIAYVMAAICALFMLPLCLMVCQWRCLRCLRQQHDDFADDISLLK

AChE [7] = molecular target: T1, AChE; format: biochemical
Description: (§2) The Lineweaver–Burk plots (plots of the inverse of velocity against the inverse of the substrate concentration) were used to ascertain the mode of inhibition of these compounds. The Dixon plots of the inverse of velocity (1/v) against the concentration of the inhibitor at each concentration of substrate were used to determine their inhibitor constants (Ki).

BChE [8] = molecular target: T2, BChE; format: biochemical
Description: as §2

BACE-1 [9] = molecular target: T6, BACE-1; assay: Kinetic study against β-secretase (Lineweaver-Burk and Dixon plots); format: biochemical
Description: The Lineweaver–Burk plot (plot of the inverse of velocity (1/v) against the inverse of the substrate concentration (1/[S])) was used to ascertain the mode of inhibition of this compound.

Hek293-T cells = assay: MTT cytotoxicity assay, Hek293-T; settings: up to a concentration of 50 μM
Description: as §1

[10] = Lineweaver-Burk and Dixon plots

| Molecule | Selectivity index (SI) (AChE [1]) | IC50 (AChE [1]) | IC50 (BChE [2]) | IC50 (COX-2) | IC50 [3] | IC50 [4] | other results |
| --- | --- | --- | --- | --- | --- | --- | --- |
| Cc1ccc(-c2cc3c(ccc4c(=O)c(C=O)coc43)o2)cc1 [Compound 2h, 8-(4-Methyphenyl)-4-oxo-4H-furo[2,3-h]chromene-3-carbaldehyde] | 0.8 | 20.9 ± 0.01 µM | 25.9 ± 0.03 µM | 19.8 ± 0.03 µM | 9.2 ± 0.03 µM | 11.6 ± 0.03 µM | IC50 (human LOX-5): 28.7 ± 0.03 µM |
| O=Cc1coc2c(ccc3oc(C4=CCCCC4)cc32)c1=O [Compound 2i, 8-(Cyclohex-1-en-1-yl)-4-oxo-4H-furo[2,3-h]chromene-3-carbaldehyde] | 0.5 | 15.3 ± 0.03 µM | 31.6 ± 0.02 µM | 12.1 ± 0.01 µM | 21.5 ± 0.02 µM | 15.9 ± 0.02 µM | – |
| O=Cc1coc2c(ccc3oc(-c4ccc(Cl)cc4)cc32)c1=O [Compound 2e, 8-(4-Chlorophenyl)-4-oxo-4H-furo[2,3-h]chromene-3-carbaldehyde] | 0.8 | 27.1 ± 0.04 µM | 32.6 ± 0.02 µM | 18.6 ± 0.01 µM | 15.2 ± 0.04 µM | 19.9 ± 0.01 µM | – |
| O=c1c(C=NNc2ccc(C(F)(F)F)cc2)coc2c1ccc1oc(-c3ccccc3)cc12 [Compound 3a] | 0.8 | 15.4 ± 0.01 µM | 18.7 ± 0.03 µM | 29.7 ± 0.02 µM | 16.3 ± 0.01 µM | 15.3 ± 0.01 µM | – |
| COc1cccc2c1C(=O)c1c(O)c3c(c(O)c1C2=O)C[C@@](O)(C(=O)CO)C[C@@H]3O[C@H]1C[C@H](N)[C@H](O)[C@H](C)O1 [doxorubicin hydrochloride, reference compound] | – | – | – | – | – | – | IC50 ([5]; Homo sapiens, MCF7, 24 h treatment): 1.59 ± 0.01 µM |
| O=Cc1coc2c(ccc3oc(-c4ccc(F)cc4)cc32)c1=O [Compound 2c, 8-(4-Fluorophenyl)-4-oxo-4H-furo[2,3-h]chromene-3-carbaldehyde] | 1.1 | 30.4 ± 0.01 µM | 28.3 ± 0.03 µM | 15.8 ± 0.03 µM | 14.3 ± 0.01 µM | 7.5 ± 0.02 µM | – |
| O=C1O[C@H]([C@@H](O)CO)C(O)=C1O [Ascorbic acid, ascorbic acid, reference compound] | – | – | – | – | – | 4.6 ± 0.01 µM | – |
| O=Cc1coc2c(ccc3oc(-c4cccc(F)c4)cc32)c1=O [Compound 2b, 8-(3-Fluorophenyl)-4-oxo-4H-furo[2,3-h]chromene-3-carbaldehyde] | 1.7 | 15.2 ± 0.03 µM | 9.2 ± 0.01 µM | 43.7 ± 0.01 µM | 18.6 ± 0.01 µM | 27.6 ± 0.02 µM | – |
| COc1ccc(-c2cc3c(ccc4c(=O)c(C=O)coc43)o2)cc1 [Compound 2f, 8-(4-Methoxyphenyl)-4-oxo-4H-furo[2,3-h]chromene-3-carbaldehyde] | 1.6 | 34.2 ± 0.02 µM | 21.8 ± 0.02 µM | 13.7 ± 0.04 µM | 8.2 ± 0.03 µM | 14.3 ± 0.02 µM | IC50 (human LOX-5): 17.3 ± 0.01 µM |
| O=Cc1coc2c(ccc3oc(-c4ccccc4)cc32)c1=O [Compound 2a, 4-Oxo-8-phenyl-4H-furo[2,3-h]chromene-3-carbaldehyde] | 0.8 | 25.1 ± 0.04 µM | 34.2 ± 0.02 µM | 25.6 ± 0.01 µM | 12.5 ± 0.03 µM | 10.1 ± 0.03 µM | – |
| COc1cc(OC)cc(-c2cc3c(ccc4c(=O)c(C=O)coc43)o2)c1 [Compound 2g, 8-(3,5-Dimethoxyphenyl)-4-oxo-4H-furo[2,3-h]chromene-3-carbaldehyde] | 1.1 | 25.3 ± 0.02 µM | 23.2 ± 0.04 µM | 23.5 ± 0.03 µM | 10.6 ± 0.04 µM | 8.3 ± 0.02 µM | IC50 (human LOX-5): 24.6 ± 0.02 µM |
| O=c1c(C=NNc2ccc(C(F)(F)F)cc2)coc2c1ccc1oc(-c3cccc(Cl)c3)cc12 [Compound 3d] | 0.8 | 24.3 ± 0.03 µM | 30.1 ± 0.03 µM | 30.2 ± 0.03 µM | 11.8 ± 0.03 µM | 32.5 ± 0.03 µM | – |
| 2-(4-Chlorophenyl)-6-[(4-trifluoromethylphenyl)hydrazonomethyl]furo[3,2-h]chromen-5-one [Compound 3e] | 0.5 | 5.4 ± 0.02 µM | 9.9 ± 0.04 µM | 10.4 ± 0.03 µM | – | 25.9 ± 0.05 µM | IC50 (BACE-1 [6]): 13.6 ± 0.02 µM; IC50 ([3]; soybean LOX-15, duplicate runs, read-out: IC50 LOX-15): 14.9 ± 0.04 µM; IC50 (human LOX-5; human LOX-5, duplicate, read-out: IC50 LOX-5): 28.5 ± 0.02 µM; Ki (AChE [7]; Dixon plot): 1.6 ± 0.01 µM; Mode of inhibition, AChE (AChE [7]; [10]): non-competitive mode of inhibition; Ki (BChE [8]; Dixon plot): 1.92 ± 0.01 µM; Mode of inhibition, BChE (BChE [8]; [10]): non-competitive mode of inhibition; Ki (BACE-1 [9]; Dixon plot, substrate 150, 300 and 450 nM): 2.5 ± 0.01 µM; Mode of inhibition, BACE-1 (BACE-1 [9]; [10]): mixed mode of inhibition; IC50 ([5]; 24 h treatment): 6.82 ± 0.02 µM; Toxicity in Hek293-T cells (Hek293-T cells): non-toxic |
| O=Cc1coc2c(ccc3oc(-c4cccc(Cl)c4)cc32)c1=O [Compound 2d, 8-(3-Chlorophenyl)-4-oxo-4H-furo[2,3-h]chromene-3-carbaldehyde] | 1.5 | 19.2 µM and 19.8 µM | 13.2 ± 0.05 µM | 23.1 ± 0.02 µM | 22.9 ± 0.02 µM | 29.1 ± 0.01 µM | – |
| Cc1ccc(-c2cc3c(ccc4c(=O)c(C=NNc5ccc(C(F)(F)F)cc5)coc43)o2)cc1 [Compound 3h] | 0.6 | 9.1 ± 0.02 µM | 14.2 µM | 22.4 ± 0.01 µM | 18.6 ± 0.03 µM | 16.3 ± 0.03 µM | – |
